Drawing on ChEMBL document CHEMBL1811895, “Regioselective synthesis of water-soluble monophosphate derivatives of combretastatin A-1” (J Nat Prod, 2011), this text covers GI50 and IC50 for seven compounds.

In assay [1] the test system is SK-OV-3. The assay can be described thus: Cytotoxicity against human SKOV3 cells by SRB assay. The class given is functional.
Assay [2] has as its system NCI-H460. The assay can be described thus: Cytotoxicity against human NCI-H460 cells by SRB assay. In kind it is functional. For orientation: In SRB staining, fixed cells bind dye roughly in proportion to their protein.
For assay [3], the system named is DU-145. The assay can be described thus: Cytotoxicity against human DU145 cells by SRB assay. The class given is functional.
The nature of assay [4]: Inhibition of tubulin polymerization in bovine brain after 20 mins by spectrophotometry. On the set-up: species or system Bos taurus.

By GI50 is commonly meant the concentration that inhibits growth by half. Read a high GI50 as lower sensitivity of the cells. Broadly, the IC50 is the concentration at which inhibition is half-maximal. The low end stands for greater potency, the high end for weaker potency. `COc1ccc(/C=C\c2cc(OC)c(OC)c(OC)c2)c(OP(=O)(O)O)c1O`: the GI50 in assay [1] was 0.00164 µM; in assay [2] it was 0.00356 µM; in assay [3], 0.00277 µM. The compound also came in with an IC50 in assay [4] of over 40 µM.
As to `COc1ccc(/C=C/c2cc(OC)c(OC)c(OC)c2)c(OP(=O)(O)O)c1O`, the GI50 came to 0.465 µM in assay [1], 1.55 µM in assay [2] and 2.13 µM in assay [3].
As to `COc1cc(/C=C\c2ccc(OC)c(OP(=O)(O)O)c2O)cc(OC)c1OC`, the GI50 is 0.0026 µM in assay [1], 0.0334 µM in assay [2] and 0.0155 µM in assay [3]. In assay [4], this compound had an IC50 of over 40 µM.
For `COc1cc(/C=C/c2ccc(OC)c(OP(=O)(O)O)c2O)cc(OC)c1OC`, the GI50 was 0.681 µM in assay [1], 0.336 µM in assay [2] and 0.52 µM in assay [3].
As for `COc1cc(/C=C\c2ccc(OC)c(OP(=O)(O)O)c2OP(=O)(O)O)cc(OC)c1OC`, the values for the GI50 in assay [1], in assay [2] and in assay [3] were 0.00103 µM, 0.0133 µM and 0.00287 µM, respectively. In addition, the IC50 in assay [4] is over 40 µM.
As for `COc1ccc(/C=C/c2cc(OC)c(OC)c(OC)c2)c(O)c1O`, the GI50 came out at 2.27 µM in assay [1], 1.32 µM in assay [2] and 2.14 µM in assay [3]. The compound further had an IC50 in assay [4] of 11 µM.
In the case of `COc1ccc(/C=C\c2cc(OC)c(OC)c(OC)c2)c(O)c1O` [COMBRETASTATIN A-1], the values for the GI50 in assay [1], in assay [2] and in assay [3] were 0.0384 µM, 0.0153 µM and 0.0326 µM, respectively. Besides, it took 1.9 µM to reach half-maximal inhibition in assay [4] (IC50).
